Earlier results as cited in US20080195230A1, “Pericardial tissue sheet” (priority 2007, published 2008).

Columns and labels:
rabbit = settings: i.v.
[1] = tested on: Chinese hamster ovary (CHO-K1) cells; settings: in vitro
3T3 fibroblasts = settings: in vitro

Compound	LD50 (rabbit)	solubility in organic solvents (alcohol, acetic acid, acetone)	solubility in water (water)	genotoxicity (clastogenic response) [1]	cytotoxicity compared with glutaraldehyde (3T3 fibroblasts)
Deoxycholic acid	15 mg/kg	soluble in alcohol and to a lesser extent acetone and glacial acetic acid	sparingly soluble in water		
COC(=O)C1=CO[C@@H](O)[C@@H]2C(CO)=CC[C@H]12 [genipin]				does not cause clastogenic response	substantially less cytotoxic than glutaraldehyde
